According to patent publication US7776873B2, “Method for treating damage to gastric mucosa” (Yuhan Corporation, priority 2005, dated 2010):

Test system: ERK (extracellular signal-regulated kinase)
Assay: H. pylori-induced ERK activation (Western blot for p-ERK)
Format: cell-based, human
Conditions: AGS cells, 5 and 25 uM for 16 hours, then H. pylori 30 minutes, FIG. 4
Procedure: H. pylori-induced cytotoxicity activates MAPK (Mitogen-Activated Protein Kinase), thereby resulting in apoptosis. Therefore, H. pylori infection leads to an increase in phosphorylation of ERK among three major subfamilies of MAPKs.
The human gastric epithelial (AGS, KCLB 21739) cells were seeded in culture dishes at 2×10^6 cells/100 mm^2 and cultured in RPMI 1640 (Gibco BRL, Grand Island, N.Y., U.S.A.), supplemented with 100 units/mL penicillin, 100 ug/mL streptomycin, and 10% FBS (Fetal Bovine Serum). Revaprazan, dissolved in sterilized water, were added to AGS cells to reach final concentrations of 5 and 25 uM and the cells were incubated at 37° C. for 16 hours. RPMI 1640 media was removed and then the cells washed three times with PBS (137 mM NaCl, 2.7 mM KCl, 10 mM Na2HPO4, and 2 mM KH2PO4). For inoculation, H. pylori (ATCC 43504) cultures were resuspended in PBS and cocultured with AGS cells at a final concentration of 5×10^8 CFU/ml. After 30 minutes of incubation at 37° C., the cells were resuspended in lysis buffer (20 mM Tris-Cl (pH 7.5), 150 mM NaCl, 1% Triton X-100, 1 mM EDTA, and protease inhibitor cocktail (Roche, Mannheim, Germany)). The suspension was sonicated for approximately 10 seconds, four times using the BIORUPTOR (Cosmo Bio, Koto-ku, Tokyo), and centrifuged at 4° C., 12000 rpm for 30 minutes. […]

## Cc1nc(Nc2ccc(F)cc2)nc(N2CCc3ccccc3C2C)c1C (stereo not shown) [revaprazan, 5,6-dimethyl-2-(4-fluorophenylamino)-4-(1-methyl-1,2,3,4-tetrahydroisoquinolin-2-yl)pyrimidine]
  effect on ERK activation (p-ERK): significant, concentration-dependent inhibitory effect
